Source: PubChem BioAssay (NCI)
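1) Cells in 96-well plates. 2) Compound, 48 h, 5 concentrations. 3) Linear interpolation between surrounding doses. 4) Unreached endpoint = highest concentration. Definition used: TGI = concentration required for complete inhibition of growth.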

Legend:
Assay in all cases: DTP human tumour cell line panel, 48 h
SN12C renal = system: SN12C renal
SNB-19 CNS = system: SNB-19 CNS
MDA-N = system: MDA-N
TK-10 renal = system: TK-10 renal
ACHN renal = system: ACHN renal
MOLT-4 leukemia = system: MOLT-4 leukemia

Compound	TGI (SN12C renal) [µM]	TGI (SNB-19 CNS) [µM]	TGI (MDA-N) [µM]	TGI (TK-10 renal) [µM]	TGI (ACHN renal) [µM]	TGI (MOLT-4 leukemia) [µM]
c1ccc2[nH]c3[nH]c4[nH]c5ccccc5[nH]c4[nH]c3[nH]c2c1	> 100	> 100	> 100	> 100	> 100	> 100
COC(=O)C(/C(=N/N)C(=O)Nc1cc(Cl)c(Cl)cc1Cl)c1nc2ccc(Cl)cc2[nH]c1=O (stereo unspecified)	> 100	–	> 100	> 100	> 100	–
CC(=O)OCC1OC(n2c3c(c(-c4ccc(Cl)cc4)c(C#N)c2=S)C(=O)CC(C)(C)C3)C(OC(C)=O)C(OC(C)=O)C1OC(C)=O (stereo unspecified)	> 53.4	> 86.8	> 54.8	> 100	> 100	> 100
COC(C/C(=C/CO[Si](C(C)C)(C(C)C)C(C)C)C(=O)Nc1ccccc1I)OC	> 100	42.5	> 100	> 100	> 100	> 100
COC(=O)/C(C#N)=C1\NC(=O)CC(c2ccccc2)C1C#N (stereo unspecified)	> 100	> 100	> 100	> 100	> 100	> 100
Cc1cc(S(=O)(=O)Nc2nc(N)nc(N3CCOCC3)n2)c(SCC(=O)O)cc1Cl	> 10	> 10	> 10	> 10	> 10	> 10
OCCSCc1cc2c(O)c(c1)Cc1cc(CSCCO)cc(c1O)Cc1cc(CSCCO)cc(c1O)Cc1cc(CSCCO)cc(c1O)C2	22.7	15.9	11.8	37	9.61	> 100
Cc1ccc(S(=O)(=O)[N-]C2C(=O)c3ccccc3C(=O)C2[n+]2cccc(C(N)=O)c2)cc1 (stereo unspecified)	> 100	> 100	> 100	> 100	> 100	> 100
O=c1oc2cc(O)ccc2c(O)c1C(c1ccccn1)c1c(O)c2ccc(O)cc2oc1=O	> 100	> 100	> 100	> 100	> 100	> 100
CCCCCC(=O)OCC(=O)[C@H]1[C@H](C)C[C@H]2[C@@H]3C[C@H](F)C4=C/C(=N/OC(=O)c5cccc6c(=O)c7ccccc7[nH]c56)C=C[C@]4(C)[C@H]3[C@@H](O)C[C@@]21C	> 100	> 100	76.8	> 100	> 100	> 100
CN(C)c1ncnc2c1ncn2C1C=CC(COS(N)(=O)=O)C1 (stereo unspecified)	> 100	> 100	> 100	–	> 100	> 100
CC1(C)OC(=O)C(C)(C)OC1=O	> 100	> 100	> 100	> 100	> 100	> 100
O=c1n(-c2ccccc2)c(=O)n2n1C1CCC2CC1	> 100	> 100	> 100	> 100	> 100	> 100
CCOc1ccc(N/C(=C(/C(Cl)=C(/Cl)NCCO)[N+](=O)[O-])n2nnc3ccccc32)cc1	49.1	> 100	> 100	–	48.4	> 100
NC(C(F)(F)F)(C(F)(F)F)P(=O)(c1ccccc1)c1ccccc1	> 100	> 100	> 100	> 100	> 100	> 100
